Consider one substance from patent publication US20110166079A1, “METHODS OF TREATING CANCER WITH APOE PEPTIDES” (COGNOSCI, INC., priority 2008, published 2011).

One series has as its target T1, PP2A (Mus musculus, UniProt P63330).
T1 construct: cells were lysed and PP2A was immunoprecipitated by adding an antibody targeted to the catalytic C-subunit of PP2A; endogenous in cells; host or cells: mouse macrophagic RAW cells
The experiment in a line: PP2A activity in RAW cells (immunoprecipitation / phosphate release). The format is cell-based. Conditions: 30 minutes, 2 μM COG112, 10 nM okadaic acid, FIG. 3. The method, then:
Mouse macrophagic RAW cells were incubated with either 2 μM COG112 (SEQ ID NO: 2), 10 nM okadaic acid (an inhibitor of PP2A), or okadaic acid and COG112. After 30 minutes, cells were lysed and PP2A was immunoprecipitated by adding an antibody targeted to the catalytic C-subunit of PP2A. Half of the immunoprecipitate was separated by SDS-PAGE, blotted on to nitrocellulose, and probed with an anti-PP2AC antibody. The remaining portion was assayed for activity by adding 125 μL assay cocktail containing a phospho-threonine substrate peptide to the immunoprecipitated enzyme. After incubating at 37° C. with shaking, a 25 μL aliquot was removed and added to an ammonium molybdate solution (Upstate) that chelates free phosphate and changes color upon chelate formation. Aliquots were removed at various time intervals and the amount of free phosphate released from the peptide was determined by comparison to a phosphate standard curve. The rate of phosphate release was determined by linear fit to the time course data and was normalized to the relative PP2A concentration. […] PP2A activity was reduced in the presence of okadaic acid alone as expected. […] Thus, the active pool of PP2A in a cell can be regulated by ApoE peptides.

The test system of a further series is B-CLL cells. Description: Cytotoxicity on B-CLL cells from CLL patients (MTS assay). The method, then: To determine whether COG peptides could counteract the overactivation of the Akt/NFkB pathway in B-CLL cells and effectively induce apoptosis, cytotoxicity testing was performed on freshly isolated B-CLL cells from CLL patients with COG peptides. Blood from CLL patients was collected and CD5+/CD19+ CLL cells were isolated using the RosetteSep™ Human B Cell Enrichment Cocktail. This method depletes whole blood of T cells, monocytes, and NK cells using a proprietary antibody cocktail containing anti-CD14, anti-CD2 and anti-CD16 antibodies to remove T cells, monocytes, and NK cells, respectively. The antibody cocktail crosslinks unwanted cells in human whole blood to multiple red blood cells forming immunorosettes thereby increasing the density of the rosetted cells, such that they pellet along with the free RBCs when centrifuged over a buoyant density medium such as Ficoll-Paque®. The highly enriched B-cell or B-CLL cells are left at the interface between Ficoll and the plasma.
COG peptides were applied to the isolated B-CLL cells (0.25×10^6 cells/well in a 96 well plate) for 72 hours, after which viable cells were assessed using the MTS assay ([…]).
Additional B-CLL cells and peripheral blood mononuclear cells (PBMC; i.e., normal B cells) were isolated from leukemia patients and normal volunteers, respectively, and were treated with a range of COG112 concentrations.
For orientation: Formazan colour is commonly taken as a measure of viable cells.

The nature of series [1]: Cytotoxicity on PBMC from normal volunteers. Conditions: human, FIG. 4. The format is cell-based.
In a further series the test system is IκB Kinase (IκK). The experiment in a line: IκK activity ELISA in YAMC cells exposed to C. rodentium. The format is cell-based, mouse. Particulars: FIG. 2D. Here is the method:
Akt kinase can phosphorylate and activate IκB Kinase (IκK), which leads to the de-repression of NFκB by IκB. As described above, COG peptides reduce phosphorylation of IκB and subsequent activation of NFκB induced by a Toll-like receptor 4 agonist (LPS). To determine if COG peptides also affect IκK activation, IκK activity was assessed in cytoplasmic cellular lysates of young adult mouse colon (YAMC) cells exposed to C. rodentium bacteria alone or in the presence of COG112 (SEQ ID NO: 2). IκK activity was measured using a specific ELISA assay (K-LISATM detection kit, Calbiochem/EMD Biosciences). Cytosolic cell extracts were incubated in glutathionine coated wells of a 96-well plate with a glutathione S transferase (GST)-tagged IκB-α fusion polypeptide substrate that includes the Ser32 and Ser36 IκB-α kinase phosphorylation sites. Phosphorylated GST-IκB-α substrate was detected using horseradish peroxidase-conjugated anti-phospho-IκB-α antibody. Optical density proportional to kinase activity was measured at 450 nm in a plate reader. The time course of IκK activation induced by C. rodentium in the presence (closed squares) or absence (open squares) of COG112 is shown in FIG. 2D. Time 0 indicates cells that were not stimulated with C. rodentium.
(In general: In an ELISA, binding on a coated surface is turned into a signal by an enzyme label.)

In a further series the test system is Eμ-TCL1 transgenic mice. Description: CLL in Eμ-TCL1 transgenic mice treated with COG112. The format is in vivo, mouse. The source says:
In the Eμ-TCL1 transgenic mouse model, the TCL1 gene is placed under control of a B-cell-specific IgVH promoter and IgH-Eμ enhancer. These mice develop normally into adulthood but later develop enlarged spleens, livers, and lymph nodes that are accompanied by high blood lymphocyte counts. The mice eventually die prematurely as the leukemic cells accumulate along with development of advanced lymphoadenopathy Importantly, the accumulated B-cells in these transgeneic TCL1 mice are G0-1 arrested and express CD19+/CD5+/IgM+ just as the human CLL cells (Bichi et al. (2002) Proc Natl Acad Sci USA, Vol. 99: 6955-6960). As further validation of these Eμ-TCL1 transgenic mice as an effective model of human CLL, CLL symptoms in the TCL1 transgenic mice improve following administration of fludarabine, a clinically used anti-CLL therapeutic. […] The effect of COG112 on CLL cell production and life expectancy in the Eμ-TCL1 transgenic mouse model of CLL is evaluated.
Animals (n=6) are treated with either 10 mg/kg of COG112 or a vehicle control daily by subcutaneous injection. After 15 days of treatment, blood is collected by retro-orbital bleeds and white bloods cells quantitated. White-blood cell counts are expected to be reduced in COG112-treated animals relative to the vehicle controls.
At the initiation of treatment, blood is drawn to determine baseline CD5+/CD19+ CLL cell counts and groups of animals (n=20) are treated with a vehicle control (lactated Ringer's solution) or COG112 at doses of 4.0, 1.0, or 0.25 mg/kg. COG112 or the vehicle control is delivered by intraperitoneal injection at a volume of 10 mL/kg. Animals receive injections daily Monday through Friday so that 5 doses are administered per week for 5 weeks (35 days of total treatment). Disease course is monitored by survival, total blood leukocyte and lymphocyte count, and CD19+/CD5+ cell count weekly.
Blood is collected from each mouse on a weekly basis by retro-orbital bleeds for determination of total blood leukocyte and lymphocyte counts as well as CD19+/CD5+ cell counts to assess the leukemia burden. After 5 weeks (35 days of treatment), mice are euthanized and the post treatment leukemia burden is measured by cell counting, spleen weight, and histological analysis of bone marrow, spleen, liver, and lymph nodes.

Setting [2] is: 4.0, 1.0 or 0.25 mg/kg intraperitoneal, 5 weeks, versus vehicle.

T1 sequence (P63330 whole entry): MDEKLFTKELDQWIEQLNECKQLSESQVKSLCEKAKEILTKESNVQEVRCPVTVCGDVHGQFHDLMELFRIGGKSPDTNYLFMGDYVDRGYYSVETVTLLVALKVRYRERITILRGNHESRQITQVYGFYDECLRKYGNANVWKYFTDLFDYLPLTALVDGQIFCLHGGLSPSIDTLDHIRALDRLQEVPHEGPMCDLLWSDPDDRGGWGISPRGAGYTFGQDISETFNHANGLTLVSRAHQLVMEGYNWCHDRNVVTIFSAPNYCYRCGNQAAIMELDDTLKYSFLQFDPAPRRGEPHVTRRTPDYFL

As usually defined, the EC50 is the midpoint of the concentration-response curve. A lower EC50 goes with a more potent agent. Turning to “Ac-RQIKIWFQNRRMKWKKCLRVRLASHLRKLRKRLL-NH2 (N-terminus and C-terminus assumed) [COG112]”, the “PP2A activity (rate of phosphate release)” value at PP2A is reported as “increased”. In addition, the “Fold Change” value in the series with B-CLL cells (EC50 relative to COG056 control) is 58.6. A half-maximal response in the series on B-CLL cells (human, 72 hours) (EC50) required 0.22 ± 0.13 µM. In series [1], this substance yielded an EC50 of about 20 µM. Further, the IκK activity result in the series with IκB Kinase (IκK) is “substantially reduced”. In the series on Eμ-TCL1 transgenic mice (10 mg/kg daily subcutaneous, 15 days, relative to vehicle), the white-blood cell counts result is “reduced”. Besides, in the series with Eμ-TCL1 transgenic mice (setting [2]), the “CD19+/CD5+ cell counts” value is “dose-dependent reduction”, the “CLL burden by histological analysis” value is on record as “dose-dependent reduction”, the cumulative survival entry is “dose-dependent increase” and the spleen weight result is reported as “dose-dependent reduction”.
